The values that follow come from ChEMBL document CHEMBL1139707, “In vitro inhibitory activity of boropinic acid against Helicobacter pylori” (2006).

The structures appear in SMILES notation. In brackets after ≈: the same amount, converted by molar mass. Where only a bound is given, the exact number is not on record here.

This test deals with Helicobacter pylori. Kind of test: Antimicrobial activity against Helicobacter pylori DSMZ 4867. The test is classed as functional.
In the case of `CC(C)=CCC/C(C)=C/COc1ccc(/C=C/C(=O)O)cc1`, the MIC (in general, the lowest concentration that inhibits growth of the organism) was > 200 µg/mL.

Turning to `COc1cc(C(=O)O)ccc1OCC=C(C)C`, the MIC was determined as 50 µg/mL (≈ 212 µM). With `COc1cc(C(=O)O)ccc1OC/C=C(\C)CCC=C(C)C`, the MIC was > 200 µg/mL. On to `COc1cc(/C=C/C(=O)O)ccc1OC/C=C(\C)CCC=C(C)C`, for which the MIC was > 200 µg/mL. Compound `CC1(C)S[C@@H]2[C@H](NC(=O)[C@H](N)c3ccc(O)cc3)C(=O)N2[C@H]1C(=O)O` [AMOXICILLIN] had an MIC of 0.781 µg/mL (≈ 2.14 µM).

For `CC(C)=CCC/C(C)=C/COc1ccc2ccc(=O)oc2c1` [AURAPTENE], it took 50 µg/mL (≈ 168 µM) to inhibit growth (MIC). In turn, `COc1cc(/C=C/C(=O)O)ccc1OCC=C(C)C` [BOROPINIC ACID] registered a minimum inhibitory concentration (MIC) of 1.62 µg/mL (≈ 6.18 µM). This MIC lies about 31-fold lower than the previous one. In turn, `CC[C@H]1OC(=O)[C@H](C)[C@@H](O[C@H]2C[C@@](C)(OC)[C@@H](O)[C@H](C)O2)[C@H](C)[C@@H](O[C@@H]2O[C@H](C)C[C@H](N(C)C)[C@H]2O)[C@](C)(OC)C[C@@H](C)C(=O)[C@H](C)[C@@H](O)[C@]1(C)O` [CLARITHROMYCIN] returned an MIC of 1.25 µg/mL (≈ 1.67 µM). Under `Cc1ncc([N+](=O)[O-])n1CCO` [METRONIDAZOLE] stands > 200 µg/mL. Under `CN(C)[C@@H]1C(O)=C(C(N)=O)C(=O)[C@@]2(O)C(O)=C3C(=O)c4c(O)cccc4[C@@](C)(O)[C@H]3C[C@@H]12` [TETRACYCLINE] stands 4 µg/mL (≈ 9 µM). With `CC(C)=CCOc1ccc(C(=O)O)cc1` [VALENCIC ACID] the figure was 100 µg/mL (≈ 485 µM).
